How the values were obtained:
Test in all cases: Test B preemergence/postemergence greenhouse plant response rating 0 to 10
blackgrass = assay type: in vivo, Alopecurus myosuroides; conditions: for Plant response rating, Blackgrass: 0 to 10 scale
Outline: (§1)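 Planted seeds are treated preemergence with compound dissolved in a non-phytotoxic solvent, while postemergence applications go onto plants of two to eighteen cm. Plants stay in the greenhouse twelve to sixteen days and are then rated visually relative to controls.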

cotton = assay type: in vivo, Gossypium hirsutum; conditions: for Plant response rating, Cotton: 0 to 10 scale
Outline: as §1

cheatgrass = assay type: in vivo, Bromus secalinus; conditions: for Plant response rating, Cheatgrass: 0 to 10 scale
Outline: as §1

bedstraw = assay type: in vivo, Galium aparine; conditions: for Plant response rating, Bedstraw: 0 to 10 scale
Outline: as §1

cocklebur = assay type: in vivo, Xanthium pensylvanicum; conditions: for Plant response rating, Cocklebur: 0 to 10 scale
Outline: as §1

wild buckwheat = assay type: in vivo, Polygonum convolvulus; conditions: for Plant response rating, Wild buckwheat: 0 to 10 scale; for Plant response rating (0 to 10 scale), Wild buckwheat: Rate 100 g/ha
Outline: as §1

barley = assay type: in vivo, Hordeum vulgare; conditions: for Plant response rating, Barley: 0 to 10 scale
Outline: as §1

rice = assay type: in vivo, Oryza sativa; conditions: for Plant response rating, Rice: 0 to 10 scale; for Plant response rating (0 to 10 scale), Rice: Rate 100 g/ha
Outline: as §1

With Clc1ccc(-c2nc3n(c2Br)CCCC3)c(Cl)c1 [Compound 2] the “Plant response rating (0 to 10 scale), Blackgrass” value (blackgrass; POSTEMERGENCE, Rate 50 g/ha) was 1, the “Plant response rating (0 to 10 scale), Blackgrass” value (blackgrass; POSTEMERGENCE, Rate 100 g/ha) was 1 and the “Plant response rating, Blackgrass” value (blackgrass; POSTEMERGENCE, Rate 200 g/ha) was 1. The “Plant response rating, Blackgrass” value (blackgrass; POSTEMERGENCE, Rate 400 g/ha) was 2, the “Plant response rating, Blackgrass” value (blackgrass; PREEMERGENCE, Rate 50 g/ha) was 0 and the “Plant response rating (0 to 10 scale), Blackgrass” value (blackgrass; PREEMERGENCE, Rate 100 g/ha) was 0. For the same compound, the “Plant response rating, Blackgrass” value (blackgrass; PREEMERGENCE, Rate 400 g/ha) was 0, the “Plant response rating, Blackgrass” value (blackgrass; Rate 200 g/ha, PREEMERGENCE) was 0 and the “Plant response rating (0 to 10 scale), Cotton” value (cotton; POSTEMERGENCE, Rate 50 g/ha) was 9. The “Plant response rating (0 to 10 scale), Cotton” value (cotton; POSTEMERGENCE, Rate 100 g/ha) was 10, the “Plant response rating, Cotton” value (cotton; POSTEMERGENCE, Rate 200 g/ha) was 9 and the “Plant response rating, Cotton” value (cotton; POSTEMERGENCE, Rate 400 g/ha) was 10. The “Plant response rating, Cotton” value (cotton; PREEMERGENCE, Rate 50 g/ha) was 0, the “Plant response rating (0 to 10 scale), Cotton” value (cotton; PREEMERGENCE, Rate 100 g/ha) was 0 and the “Plant response rating, Cotton” value (cotton; PREEMERGENCE, Rate 400 g/ha) was 2. For the same compound, the “Plant response rating, Cotton” value (cotton; Rate 200 g/ha, PREEMERGENCE) was 0, the “Plant response rating (0 to 10 scale), Cheatgrass” value (cheatgrass; POSTEMERGENCE, Rate 50 g/ha) was 2 and the “Plant response rating (0 to 10 scale), Cheatgrass” value (cheatgrass; POSTEMERGENCE, Rate 100 g/ha) was 2. For the same compound, the “Plant response rating, Cheatgrass” value (cheatgrass; POSTEMERGENCE, Rate 200 g/ha) was 3, the “Plant response rating, Cheatgrass” value (cheatgrass; POSTEMERGENCE, Rate 400 g/ha) was 4 and the “Plant response rating, Cheatgrass” value (cheatgrass; PREEMERGENCE, Rate 50 g/ha) was 0. The “Plant response rating (0 to 10 scale), Cheatgrass” value (cheatgrass; PREEMERGENCE, Rate 100 g/ha) was 0, the “Plant response rating, Cheatgrass” value (cheatgrass; PREEMERGENCE, Rate 400 g/ha) was 0 and the “Plant response rating, Cheatgrass” value (cheatgrass; Rate 200 g/ha, PREEMERGENCE) was 0. For the same compound, the “Plant response rating (0 to 10 scale), Bedstraw” value (bedstraw; POSTEMERGENCE, Rate 50 g/ha) was 3, the “Plant response rating (0 to 10 scale), Bedstraw” value (bedstraw; POSTEMERGENCE, Rate 100 g/ha) was 3 and the “Plant response rating, Bedstraw” value (bedstraw; POSTEMERGENCE, Rate 200 g/ha) was 4. For the same compound, the “Plant response rating, Bedstraw” value (bedstraw; POSTEMERGENCE, Rate 400 g/ha) was 3, the “Plant response rating, Bedstraw” value (bedstraw; PREEMERGENCE, Rate 50 g/ha) was 0 and the “Plant response rating (0 to 10 scale), Bedstraw” value (bedstraw; PREEMERGENCE, Rate 100 g/ha) was 0. The “Plant response rating, Bedstraw” value (bedstraw; PREEMERGENCE, Rate 400 g/ha) was 0, the “Plant response rating, Bedstraw” value (bedstraw; Rate 200 g/ha, PREEMERGENCE) was 3 and the “Plant response rating (0 to 10 scale), Cocklebur” value (cocklebur; POSTEMERGENCE, Rate 50 g/ha) was 7. The “Plant response rating (0 to 10 scale), Cocklebur” value (cocklebur; POSTEMERGENCE, Rate 100 g/ha) was 7, the “Plant response rating, Cocklebur” value (cocklebur; POSTEMERGENCE, Rate 200 g/ha) was 6 and the “Plant response rating, Cocklebur” value (cocklebur; POSTEMERGENCE, Rate 400 g/ha) was 8. For the same compound, the “Plant response rating, Cocklebur” value (cocklebur; PREEMERGENCE, Rate 50 g/ha) was 0, the “Plant response rating (0 to 10 scale), Cocklebur” value (cocklebur; PREEMERGENCE, Rate 100 g/ha) was 0 and the “Plant response rating, Cocklebur” value (cocklebur; PREEMERGENCE, Rate 400 g/ha) was 0. For the same compound, the “Plant response rating, Cocklebur” value (cocklebur; Rate 200 g/ha, PREEMERGENCE) was 0, the “Plant response rating, Wild buckwheat” value (wild buckwheat; POSTEMERGENCE, Rate 50 g/ha) was 10 and the “Plant response rating (0 to 10 scale), Wild buckwheat” value (wild buckwheat; POSTEMERGENCE) was 10. For the same compound, the “Plant response rating, Wild buckwheat” value (wild buckwheat; POSTEMERGENCE, Rate 200 g/ha) was 10, the “Plant response rating, Wild buckwheat” value (wild buckwheat; POSTEMERGENCE, Rate 400 g/ha) was 10 and the “Plant response rating, Wild buckwheat” value (wild buckwheat; PREEMERGENCE, Rate 50 g/ha) was 0. The “Plant response rating (0 to 10 scale), Wild buckwheat” value (wild buckwheat; PREEMERGENCE) was 0, the “Plant response rating, Wild buckwheat” value (wild buckwheat; PREEMERGENCE, Rate 400 g/ha) was 0 and the “Plant response rating, Wild buckwheat” value (wild buckwheat; Rate 200 g/ha, PREEMERGENCE) was 0. The “Plant response rating (0 to 10 scale), Barley” value (barley; POSTEMERGENCE, Rate 50 g/ha) was 2, the “Plant response rating (0 to 10 scale), Barley” value (barley; POSTEMERGENCE, Rate 100 g/ha) was 2 and the “Plant response rating, Barley” value (barley; POSTEMERGENCE, Rate 200 g/ha) was 3. The “Plant response rating, Barley” value (barley; POSTEMERGENCE, Rate 400 g/ha) was 2, the “Plant response rating, Barley” value (barley; PREEMERGENCE, Rate 50 g/ha) was 0 and the “Plant response rating (0 to 10 scale), Barley” value (barley; PREEMERGENCE, Rate 100 g/ha) was 0. For the same compound, the “Plant response rating, Barley” value (barley; PREEMERGENCE, Rate 400 g/ha) was 0, the “Plant response rating, Barley” value (barley; Rate 200 g/ha, PREEMERGENCE) was 0 and the “Plant response rating, Rice” value (rice; POSTEMERGENCE, Rate 50 g/ha) was 3. The “Plant response rating (0 to 10 scale), Rice” value (rice; POSTEMERGENCE) was 4, the “Plant response rating, Rice” value (rice; POSTEMERGENCE, Rate 200 g/ha) was 4 and the “Plant response rating, Rice” value (rice; POSTEMERGENCE, Rate 400 g/ha) was 4. The “Plant response rating, Rice” value (rice; PREEMERGENCE, Rate 50 g/ha) was 0, the “Plant response rating (0 to 10 scale), Rice” value (rice; PREEMERGENCE) was 0 and the “Plant response rating, Rice” value (rice; PREEMERGENCE, Rate 400 g/ha) was 0. The “Plant response rating, Rice” value (rice; Rate 200 g/ha, PREEMERGENCE) was 0.

From patent US6358885B1, “Substituted phenylheterocyclic herbicides” (Mississippi State University, priority 1992, dated 2002)
